Source: patent US11643395B2, “Derivatives of 4-aminoantipyrine as anti-Alzheimers butyrylcholinesterase inhibitors” (priority 2021, dated 2023)
“Also recorded” adds a separate entry of the source. Where a name gives a salt, the structure may show the parent alone.

Key:
[1] = target: T1, butyrylcholinesterase (BuChE) enzyme (Homo sapiens (Human), UniProt P06276); experiment: In-vitro butyryl cholinesterase inhibitory activity (DTNB, 96-well); type: biochemical; conditions: for IC50: read-out: Butyrylcholinesterase Inhibition Activity IC50 ± SEM; for Butyrylcholinesterase inhibition, rating in words: compared with standard galantamine hydrobromide
Experimental: After that 10 μL of pre-prepared butyrylthiocholine chloride (0.5 mM) substrate was added in the dark for 15 minutes, followed by the addition DTNB (0.5 mM), to produce thionitrobenzoate (TNB), whose absorbance range in 412 nm. 5-Thio-2 nitrobenzoate (TNB) (yellow color) anion was produced when thiocholine binds with DTNB which was measured in the form of absorbance in each well. Each compound was evaluated in triplicate at 0.5 mM.
The enzyme inhibitory activity was calculated using the following formula: Percent Inhibition=100−(O.D. of test/O.D. of control)×100
Where test is the enzyme activity with sample, and control is the enzyme activity without sample, and O.D. is optical density.
The IC50 of the compounds was calculated using EZ-Fit Enzyme Kinetic Program (Perrella Scientific Inc., Amhrest, U.S.A.).

[2] = target: T1, butyrylcholinesterase (BuChE) enzyme; experiment: Kinetic studies of butyrylcholinesterase inhibition (L-B reciprocal plots); type: biochemical; conditions: four substrate concentrations (0.05, 0.1, 0.2, 0.4 mM); for Ki: read-out: Butyrylcholinesterase Inhibition Activity Ki ± SEM
Experimental: 0.5 mM concentrations of each inhibitor, as well as control, were examined for their butyrylcholinesterase inhibitory activity using four different substrate concentrations (0.05, 0.1, 0.2, and 0.4 mM).

[3] = butyrylthiocholine chloride substrate, pH 8.0, 25° C.

T1 sequence (P06276 29-602): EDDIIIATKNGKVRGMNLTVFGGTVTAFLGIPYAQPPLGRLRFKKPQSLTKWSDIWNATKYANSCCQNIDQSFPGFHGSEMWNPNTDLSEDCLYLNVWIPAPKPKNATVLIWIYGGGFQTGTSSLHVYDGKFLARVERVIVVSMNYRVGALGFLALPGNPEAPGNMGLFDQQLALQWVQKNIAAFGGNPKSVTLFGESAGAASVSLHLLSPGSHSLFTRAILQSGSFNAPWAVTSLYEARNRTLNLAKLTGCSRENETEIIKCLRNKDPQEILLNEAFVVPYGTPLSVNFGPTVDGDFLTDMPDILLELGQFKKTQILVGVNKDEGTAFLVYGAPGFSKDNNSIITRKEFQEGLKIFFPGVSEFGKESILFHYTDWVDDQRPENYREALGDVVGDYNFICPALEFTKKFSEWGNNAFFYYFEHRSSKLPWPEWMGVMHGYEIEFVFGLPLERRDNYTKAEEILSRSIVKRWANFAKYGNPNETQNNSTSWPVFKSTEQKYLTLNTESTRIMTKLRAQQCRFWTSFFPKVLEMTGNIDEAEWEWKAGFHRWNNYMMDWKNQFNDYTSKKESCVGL

| Structure (SMILES) | IC50 [1, 3] | Butyrylcholinesterase inhibition, rating in words [1] | Butyrylcholinesterase Inhibition Activity IC50 ± SEM [1, 3] | Type of inhibition of butyrylcholinesterase [2] | Ki [2] |
| --- | --- | --- | --- | --- | --- |
| Cc1c(N)c(=O)n(-c2ccccc2)n1C [4-aminoantipyrine, 4-Aminoantipyrine] | 69700 ± 400 nM | moderate inhibitor | – | – | – |
| Cc1c(N(Cc2cccc(Cl)c2)Cc2cccc(Cl)c2)c(=O)n(-c2ccccc2)n1C [Compound 1, 4-(Bis(3-chlorobenzyl)amino)-1,5-dimethyl-2-phenyl-1,2-dihydro-3H-pyrazol-3-one] | 100 nM | potent inhibitors | – | – | – |
| Cc1c(N(Cc2ccccc2Cl)Cc2ccccc2Cl)c(=O)n(-c2ccccc2)n1C [Compound 2, 4-(Bis(2-chlorobenzyl)amino)-1,5-dimethyl-2-phenyl-1,2-dihydro-3H-pyrazol-3-one] | 500 nM | potent inhibitors | – | – | – |
| Cc1c(N(Cc2cccc(I)c2)Cc2cccc(I)c2)c(=O)n(-c2ccccc2)n1C [Compound 3, 4-(Bis(3-iodobenzyl)amino)-1,5-dimethyl-2-phenyl-1,2-dihydro-3H-pyrazol-3-one] | 400 nM | potent inhibitors | – | – | – |
| Cc1c(N(Cc2ccccc2I)Cc2ccccc2I)c(=O)n(-c2ccccc2)n1C [Compound 4, 4-(Bis(2-iodobenzyl)amino)-1,5-dimethyl-2-phenyl-1,2-dihydro-3H-pyrazol-3-one] | – | completely inactive | Not Active | – | – |
| Cc1c(N(Cc2ccc(I)cc2)Cc2ccc(I)cc2)c(=O)n(-c2ccccc2)n1C [Compound 5, 4-(Bis(4-iodobenzyl)amino)-1,5-dimethyl-2-phenyl-1,2-dihydro-3H-pyrazol-3-one] | 2430 nM | potent inhibitors | – | competitive inhibition; also recorded: Competitive Inhibitor | 5670 nM |
| Cc1c(N(Cc2ccccc2Br)Cc2ccccc2Br)c(=O)n(-c2ccccc2)n1C [Compound 6, 4-(Bis(2-bromobenzyl)amino)-1,5-dimethyl-2-phenyl-1,2-dihydro-3H-pyrazol-3-one] | 700 nM | potent inhibitors | – | non-competitive type of inhibition; also recorded: Non-competitive Inhibitor | 2400 nM |
| Cc1c(N(Cc2ccc(Br)cc2)Cc2ccc(Br)cc2)c(=O)n(-c2ccccc2)n1C [Compound 7, 4-(Bis(4-bromobenzyl)amino)-1,5-dimethyl-2-phenyl-1,2-dihydro-3H-pyrazol-3-one] | 58700 ± 400 nM | moderate inhibitor | – | – | – |
| Cc1c(N(Cc2cccc(Br)c2)Cc2cccc(Br)c2)c(=O)n(-c2ccccc2)n1C [Compound 8, 4-(Bis(3-bromobenzyl)amino)-1,5-dimethyl-2-phenyl-1,2-dihydro-3H-pyrazol-3-one] | 26.2 nM | potent inhibitors | – | – | – |
| COc1ccc2c3c1O[C@H]1C[C@@H](O)C=C[C@@]31CCN(C)C2 [galantamine hydrobromide, reference compound] | – | – | – | Mixed type Inhibitor | – |
